Test results as given in patent US6503881B2 (priority 1996, dated 2003).
In brackets after ≈: the same amount, converted by molar mass. Where two headings read alike, the source gives them in different places. Peptide text beside a SMILES is read from it.

Columns and labels:
[1] = system: microorganisms with acquired resistance; experiment: microbe, parasite or virus in culture
P. aeruginosa = assay type: cell-based
[2] = system: inherently resistant microorganisms
bacterial isolates = settings: for PIC: with Gentamicin; for FIC: Tobramycin + peptide
[3] = system: microorganisms with acquired resistance
[4] = S. aureus SA25 (Ciprofloxacin section)
[5] = S. maltophilia SMA018, pair Amikacin / MBI 11B16CN
[6] = S. maltophilia SMA022, pair Amikacin / MBI 11B16CN
[7] = S. maltophilia SMA018, pair Amikacin / MBI 21A2

CC1(C)S[C@@H]2[C@H](NC(=O)[C@H](N)c3ccccc3)C(=O)N2[C@H]1C(=O)O [Ampicillin]
MIC ([1]; Staphylococcus haemolyticus, read-out: MIC alone, S. haemolyticus SH8459, pair Ampicillin / MBI 26): 0.5 µg/mL (≈ 1.43 µM)
MIC ([1]; Staphylococcus haemolyticus, read-out: MIC alone, S. haemolyticus SH8564, pair Ampicillin / MBI 26): 64 µg/mL (≈ 183 µM)
MIC ([1]; Staphylococcus haemolyticus, read-out: MIC alone, S. haemolyticus SH8575, pair Ampicillin / MBI 26): 0.5 µg/mL (≈ 1.43 µM)
MIC ([1]; Staphylococcus haemolyticus, read-out: MIC alone, S. haemolyticus SH8578, pair Ampicillin / MBI 26): 0.5 µg/mL (≈ 1.43 µM)

CO/N=C(\C(=O)N[C@@H]1C(=O)N2C(C(=O)O)=C(CSc3nc(=O)c(=O)[nH]n3C)CS[C@H]12)c1csc(N)n1 [Ceftriaxone]
MIC in combination (P. aeruginosa; P. aeruginosa PA008, pair Ceftriaxone / MBI 26): 8 µg/mL
MIC in combination (P. aeruginosa; P. aeruginosa PA039, pair Ceftriaxone / MBI 11J02CN): 1 µg/mL
MIC in combination ([2]; S. maltophilia SMA021, pair Ceftriaxone / MBI 11B7CN): 1 µg/mL
MIC in combination ([2]; S. maltophilia SMA021, pair Ceftriaxone / MBI 26): 1 µg/mL
MIC in combination ([2]; S. maltophilia SMA023, pair Ceftriaxone / MBI 11B7CN): 8 µg/mL

CC[C@H](C)[C@H](NC(=O)[C@H](C)NC(=O)[C@@H]1CCCN1C(=O)CNC(=O)[C@H](C)NC(=O)[C@@H](NC(=O)[C@H](CCCCN)NC(=O)[C@H](CC(C)C)NC(=O)CNC(=O)[C@H](CO)NC(=O)[C@H](CC(C)C)NC(=O)[C@@H](NC(=O)[C@H](CCCNC(=N)N)NC(=O)[C@H](CCCNC(=N)N)NC(=O)[C@H](Cc1c[nH]c2ccccc12)NC(=O)[C@H](Cc1c[nH]c2ccccc12)NC(=O)[C@H](CCCCN)NC(=O)[C@@H](N)CCCCN)C(C)C)[C@@H](C)O)C(=O)N[C@@H](CCC(N)=O)C(=O)N[C@@H](CO)C(=O)N[C@H](C(=O)N[C@@H](CC(C)C)C(=O)N[C@@H](CC(N)=O)C(=O)N[C@@H](CCCCN)C(=O)O)C(C)C [MBI 21A1, KKWWRRVLSGLKTAGPAIQSVLNK] (H-KKWWRRVLSGLKTAGPAIQSVLNK-OH; N-terminus and C-terminus assumed)
Peptide MI Alone (bacterial isolates; [4]): 32 µg/mL
MIC in combination ([2]; S. aureus SA014 MRSA, pair Tobramycin / MBI 21A1): 16 µg/mL

COc1cccc(OC)c1C(=O)N[C@@H]1C(=O)N2[C@@H]1SC(C)(C)[C@@H]2C(=O)O [Methicillin]
MIC comb. ([3]; S. aureus SA7796, pair Methicillin / MBI 31): 2 µg/mL (≈ 5.26 µM)
MIC comb. ([3]; S. aureus SA7797, pair Methicillin / MBI 31): 2 µg/mL (≈ 5.26 µM)
MIC comb. ([3]; S. aureus SA7818, pair Methicillin / MBI 26): 4 µg/mL (≈ 10.5 µM)
MIC comb. ([3]; S. aureus SA7823, pair Methicillin / MBI 31): 2 µg/mL (≈ 5.26 µM)
MIC comb. ([3]; S. aureus SA7834, pair Methicillin / MBI 26): 8 µg/mL (≈ 21 µM)
MIC comb. ([3]; S. aureus SA7834, pair Methicillin / MBI 31): 1 µg/mL (≈ 2.63 µM)
MIC comb. ([3]; S. aureus SA7835, pair Methicillin / MBI 26): 4 µg/mL (≈ 10.5 µM)
MIC comb. ([3]; S. aureus SA7835, pair Methicillin / MBI 31): 2 µg/mL (≈ 5.26 µM)
MIC ([1]; Staphylococcus aureus, read-out: MIC alone, S. aureus SA7796, pair Methicillin / MBI 31): 16 µg/mL (≈ 42.1 µM)
MIC ([1]; Staphylococcus aureus, read-out: MIC alone, S. aureus SA7797, pair Methicillin / MBI 31): 16 µg/mL (≈ 42.1 µM)
MIC ([1]; Staphylococcus aureus, read-out: MIC alone, S. aureus SA7818, pair Methicillin / MBI 26): 16 µg/mL (≈ 42.1 µM)
MIC ([1]; Staphylococcus aureus, read-out: MIC alone, S. aureus SA7823, pair Methicillin / MBI 31): 16 µg/mL (≈ 42.1 µM)
MIC ([1]; Staphylococcus aureus, read-out: MIC alone, S. aureus SA7834, pair Methicillin / MBI 26): 32 µg/mL (≈ 84.1 µM)
MIC ([1]; Staphylococcus aureus, read-out: MIC alone, S. aureus SA7834, pair Methicillin / MBI 31): 64 µg/mL (≈ 168 µM)
MIC ([1]; Staphylococcus aureus, read-out: MIC alone, S. aureus SA7835, pair Methicillin / MBI 26): 32 µg/mL (≈ 84.1 µM)
MIC ([1]; Staphylococcus aureus, read-out: MIC alone, S. aureus SA7835, pair Methicillin / MBI 31): 64 µg/mL (≈ 168 µM)

NC[C@H]1O[C@H](O[C@H]2[C@H](O)[C@@H](O[C@H]3O[C@H](CO)[C@@H](O)[C@H](N)[C@H]3O)[C@H](N)C[C@@H]2N)[C@H](N)C[C@@H]1O [Tobramycin]
MIC comb. ([3]; S. maltophilia 037, pair Tobramycin / MBI 29): 4 µg/mL (≈ 8.56 µM)
MIC ([1]; Stenotrophomonas maltophilia, read-out: MIC alone, S. maltophilia 041, pair Tobramycin / MBI 29): 16 µg/mL (≈ 34.2 µM)

I L R R W P W W P W R R K [MBI 11B1CN]
MIC (bacteria; A. calcoaceticus AC001): 32 µg/mL
MIC (bacteria; E. cloacae ECL007): >128 µg/mL
MIC (bacteria; E. coli ECO003): 8 µg/mL
MIC (bacteria; E. faecalis EFS004): 8 µg/mL
MIC (bacteria; E. faecium EFM002): 2 µg/mL
MIC (bacteria; K. pneumoniae KP002): 64 µg/mL
MIC (bacteria; P. aeruginosa PA005): >128 µg/mL
MIC (bacteria; S. aureus SA005): 2 µg/mL
MIC (bacteria; S. epidermidis SE001): 2 µg/mL
MIC (bacteria; S. maltophilia SMA001): 64 µg/mL
MIC (bacteria; S. marcescens SMS004): >128 µg/mL
Peptide MIC + Vancomycin ([3]; E. faecalis EFS003): 32 µg/mL
Vancomycin MIC + Peptide ([3]; E. faecalis EFS003): 4 µg/mL
Peptide MIC Alone ([3]; E. faecalis EFS003 (8. Vancomycin)): >128 µg/mL
Peptide MIC + Vancomycin ([3]; E. faecalis EFS006): 0.25 µg/mL
Vancomycin MIC + Peptide ([3]; E. faecalis EFS006): 4 µg/mL
Peptide MIC Alone ([3]; E. faecalis EFS006 (8. Vancomycin)): 128 µg/mL
Peptide MIC + Vancomycin ([3]; E. faecalis EFS010): 8 µg/mL
Vancomycin MIC + Peptide ([3]; E. faecalis EFS010): 1 µg/mL
Peptide MIC Alone ([3]; E. faecalis EFS010 (8. Vancomycin)): 128 µg/mL
Peptide MIC + Vancomycin ([3]; E. faecalis EFS014): 2 µg/mL
Vancomycin MIC + Peptide ([3]; E. faecalis EFS014): 1 µg/mL
Peptide MIC Alone ([3]; E. faecalis EFS014 (8. Vancomycin)): 4 µg/mL
Peptide MIC + Vancomycin ([3]; E. faecium EFM004): 16 µg/mL
Vancomycin MIC + Peptide ([3]; E. faecium EFM004): 0.5 µg/mL
Peptide MIC Alone ([3]; E. faecium EFM004 (8. Vancomycin)): 32 µg/mL
Peptide MIC + Vancomycin ([3]; E. faecium EFM007): 16 µg/mL
Vancomycin MIC + Peptide ([3]; E. faecium EFM007): 4 µg/mL
Peptide MIC Alone ([3]; E. faecium EFM007 (8. Vancomycin)): 64 µg/mL
Peptide MIC + Vancomycin ([3]; E. faecium EFM009): 8 µg/mL
Vancomycin MIC + Peptide ([3]; E. faecium EFM009): 4 µg/mL
Peptide MIC Alone ([3]; E. faecium EFM009 (8. Vancomycin)): 64 µg/mL
FIC ([3]; peptide + Vancomycin, E. faecalis EFS003): 0.63
FIC ([3]; peptide + Vancomycin, E. faecalis EFS006): 0.50
FIC ([3]; peptide + Vancomycin, E. faecalis EFS010): 0.13
FIC ([3]; peptide + Vancomycin, E. faecalis EFS014): 0.51
FIC ([3]; peptide + Vancomycin, E. faecium EFM004): 0.50
FIC ([3]; peptide + Vancomycin, E. faecium EFM007): 0.28
FIC ([3]; peptide + Vancomycin, E. faecium EFM009): 0.25

ILRWPWWPWRRKIMILKKAGS [MBI 11B16CN]
MIC (bacteria; A. calcoaceticus AC002): 4 µg/mL
MIC (bacteria; E. cloacae ECL007): >128 µg/mL
MIC (bacteria; E. coli ECO005): 16 µg/mL
MIC (bacteria; E. faecalis EFS001): 2 µg/mL
MIC (bacteria; K. pneumoniae KP001): 16 µg/mL
MIC (bacteria; P. aeruginosa PA004): >128 µg/mL
MIC (bacteria; S. aureus SA093): 2 µg/mL
MIC (bacteria; S. epidermidis SE010): 4 µg/mL
MIC (bacteria; S. maltophilia SMA002): 32 µg/mL
MIC (bacteria; S. marcescens SMS003): >128 µg/mL
MIC Alone ([2]; A baumannii ABI001, pair Amikacin / MBI 11B16CN): 32 µg/mL
FIC [2, 5]: 0.31
MIC Alone [2, 5]: 32 µg/mL
MIC in combination [2, 5]: 8 µg/mL
FIC [2, 6]: 0.14
MIC Alone [2, 6]: >128 µg/mL
MIC in combination [2, 6]: 32 µg/mL

KKWWRRALQGLKTAGPAIQSVLNK [MBI 21A2]
MIC Alone [2, 7]: 16 µg/mL
MIC in combination [2, 7]: 8 µg/mL
acquired resistance of S. aureus to piperacillin and ciprofloxacin ([3]; antibiotic agents combined with the peptide): overcome

KWKLFIKKLTPAVKKVLLTGLPALIS [MBI 29F1]
MIC Alone ([2]; S. aureus SA025 MRSA, pair Amikacin / MBI 29F1): 1 µg/mL

KWKSFIKKLTSAAKKVLTTGLPALIS [MBI 29A3]
Peptide MI Alone (bacterial isolates; S. aureus SA10 (Ciprofloxacin section)): 2 µg/mL
Peptide MI Alone (bacterial isolates; [4]): 1 µg/mL
PIC (bacterial isolates; S. maltophilia SMA019): 0.31
PIC (bacterial isolates; S. maltophilia SMA021): 0.31
MIC in combination ([2]; S. maltophilia SMA063, pair Amikacin / MBI 29A3): 4 µg/mL
MIC Alone ([2]; SMA036): 64 µg/mL
MIC Alone ([2]; SMA063): 8 µg/mL
Peptide MIC Alone ([3]; EFS014): 1 µg/mL
Peptide MIC Alone ([3]; SA25): 1 µg/mL

R L A R I V V I R V A R [REWH 53A5CN]
Peptide MIC + Tobramycin (bacterial isolates; S. aureus SA014 MRSA): 8 µg/mL
Peptide MIC Alone (bacterial isolates; S. aureus SA014 MRSA): 16 µg/mL
Tobramycin MIC + Peptide (bacterial isolates; S. aureus SA014 MRSA): 0.125 µg/mL
Peptide MIC + Tobramycin (bacterial isolates; S. maltophilia SMA029): 16 µg/mL
Peptide MIC Alone (bacterial isolates; S. maltophilia SMA029): >128 µg/mL
Tobramycin MIC + Peptide (bacterial isolates; S. maltophilia SMA029): 4 µg/mL
Peptide MIC + Tobramycin (bacterial isolates; S. maltophilia SMA030): 32 µg/mL
Peptide MIC Alone (bacterial isolates; S. maltophilia SMA030): >128 µg/mL
Tobramycin MIC + Peptide (bacterial isolates; S. maltophilia SMA030): 0.25 µg/mL
FIC (bacterial isolates; S. aureus SA014 MRSA): 0.50
FIC (bacterial isolates; S. maltophilia SMA029): 0.08
FIC (bacterial isolates; S. maltophilia SMA030): 0.13
Peptide MIC + Tobramycin ([3]; S. maltophilia SMA029): 32 µg/mL
Tobramycin MIC + Peptide ([3]; S. maltophilia SMA029): 0.25 µg/mL
Peptide MIC Alone ([3]; S. maltophilia SMA029 (7. Tobramycin)): >128 µg/mL
Peptide MIC + Tobramycin ([3]; S. maltophilia SMA030): 32 µg/mL
Tobramycin MIC + Peptide ([3]; S. maltophilia SMA030): 0.25 µg/mL
Peptide MIC Alone ([3]; S. maltophilia SMA030 (7. Tobramycin)): >128 µg/mL
FIC ([3]; peptide + Tobramycin, S. maltophilia SMA029): 0.13
FIC ([3]; peptide + Tobramycin, S. maltophilia SMA030): 0.13

Teicoplanin [reference compound]
MIC Alone ([2]; E. gallinarum 97046 VanC, pair Teicoplanin / MBI 26): 1 µg/mL
MIC Alone ([2]; E. gallinarum 97047 VanC, pair Teicoplanin / MBI 26): 8 µg/mL
MIC Alone ([2]; E. gallinarum 97049 VanC, pair Teicoplanin / MBI 26): 2 µg/mL
